From patent EP1043318A1 (priority 1997, dated 1999) come the findings set out here.

Data set [1] concerns C. trachomatis D323. In words: Activity on Chlamydia trachomatis in infected cell culture. Type of data set: cell-based. Conditions: for No. of unchanged cells: 100 viewing fields, cell control 9.000, infected cells 6.000.
The subject of data set [2] is herpes simplex type 1 (VPG-1/Leningrad/248/88). Briefly: Antiviral activity on herpes virus, cytopathic effect in Vero cell culture. The class given is cell-based, herpes simplex virus. The following applies: unchanged Vero cells after 36 hours.
The subject of data set [3] is M. tuberculosis 61 (S). Briefly: Activity on pathogenic mycobacteria, growth on Lewenstein-Jensen medium (sensitive strain). Type of data set: cell-based. Conditions: strain sensitive to control preparations; concentration of the preparation 50.0 g/l (table title); incubated 30 days.
Data set [4] has as its system primary culture of humans lymphocytes. Briefly: Interferon-inducing activity in primary lymphocyte culture (immunoenzyme determination of INF). Type of data set: cell-based, human.
Data set [5] can be described thus: Acute toxicity in mice. More on the design: species or system non-linebred white mice. Conditions: mouse, in vivo, iv, by mouth or intravenously, 14 days observation. On the procedure: Acute toxicity was determined on non-linebred white mice weighing 18-20 g. The claimed compounds were prepared in a range of concentrations: 1500, 700, 500, 100, 20 and 5 µg/kg. Five animals were used to study each specific concentration of a compound. The preparation was administered once a day by mouth of intravenously. The observation period was 14 days On days 1, 8 and 15 the animals in every group were weighed. For a control we used animals who received the emulsion without the test compounds. All animals, both those that died in the course of the experiment and those that survived to the end of the experiment, were opened to allow macroscopic examination of internal organs. In the course of the experiment no loss of weight was observed or any change in behavior or external appearance, nor was there any loss of life. Based on the results of the macroscopic examination of internal organs of the animals in the test and the control groups, no pathological findings were made, [text missing]

As to “2-hydroxyethylammonium salt of 5,5'-(p-nitrobenzylidene)bisbarbituric acid [III]”, the “percent protection of the cells against infection” value was determined as 60% in data set [1] (10 mg/l) and 65% in data set [1] (100 mg/l). For the same compound, the “No. of unchanged cells” value is listed as 7800 in data set [1] (10 mg/l) and 7950 in data set [1] (100 mg/l). Further, the entries for the “number of cells in 100 fields” value in data set [2] (10 mg/l), in data set [2] (50 mg/l) and in data set [2] (100 mg/l) were 2000, 3000 and 5500, respectively.
As for `Nc1nc2c(ncn2COCCO)c(=O)[nH]1` [Acyclovir, reference compound], the “number of cells in 100 fields” value in data set [2] (10 mg/l) is 8000.
As for `CC[C@@H](CO)NCCN[C@@H](CC)CO` [Ethambutol], in data set [3], the “M. tuberculosis 61S growth” value was “complete suppression of growth”.
On to `O=C1NC(=S)NC(=O)C1C(c1ccc(Cl)cc1)C1C(=O)NC(=S)NC1=O` [IX], for which the “number of cells in 100 fields” value in data set [2] (10 mg/l) was found to be 10000; in data set [2] (50 mg/l), 10000; in data set [2] (100 mg/l) it was 3000. The entries for the “Concentration of INF in induction mixture after 24 hrs. of incubation” value (from here on “Concentration of INF”) in data set [4] (1 mg/l of the preparation), in data set [4] (10 mg/l of the preparation) and in data set [4] (100 mg/l of the preparation) were 5,6 ± 0,8 IU/3·10^4 lymph/ml, 21,0 ± 0,9 IU/3·10^4 lymph/ml and 35,2 ± 1,6 IU/3·10^4 lymph/ml, respectively.
`NNC(=O)c1ccncc1` [Isoniazid]: the “M. tuberculosis 61S growth” value in data set [3] was “complete suppression of growth”.
On the same count and under the same terms, in the case of `[H]/N=C(/N)N[C@H]1[C@H](O)[C@@H](O)[C@H](O[C@@H]2O[C@@H](C)[C@](O)(C=O)[C@H]2O[C@@H]2O[C@@H](CO)[C@H](O)[C@@H](O)[C@@H]2NC)[C@@H](N/C(N)=N\[H])[C@@H]1O` [Streptomycin] it was “complete suppression of growth”.
The LD50 is the dose expected to kill half of the subjects tested. A high value points to a less toxic substance. Consider `O=C1NC(=S)NC(=O)C1C(c1ccc([N+](=O)[O-])cc1)C1C(=O)NC(=S)NC1=O` [X, 5,5'-(p-nitrobenzylidene)bis (2-thiobarbituric) acid], for which the LD50 at 336 h in data set [5] is 1000 mg/kg. The “M. tuberculosis 61S growth” value in data set [3] is “complete suppression of growth”. Further, the “number of cells in 100 fields” value in data set [2] (10 mg/l) was 10000; in data set [2] (50 mg/l), 10000; in data set [2] (100 mg/l), 3000. Further, the “Concentration of INF” value in data set [4] (1 mg/l of the preparation) came out at 4.0 ± 0.5 IU/3·10^4 lymph/ml; in data set [4] (10 mg/l of the preparation) it was 23 ± 1.0 IU/3·10^4 lymph/ml; in data set [4] (100 mg/l of the preparation), 47 ± 0.8 IU/3·10^4 lymph/ml.
Turning to “pyridine salt of 5,5'-(p-bromobenzylidene)bisbarbituric acid [VIII]”, the “number of cells in 100 fields” value was determined as 10000 in data set [2] (10 mg/l), 2500 in data set [2] (50 mg/l) and 5000 in data set [2] (100 mg/l). Moreover, the “Concentration of INF” value was 0,9 ± 0,2 IU/3·10^4 lymph/ml in data set [4] (1 mg/l of the preparation), 1,2 ± 0,4 IU/3·10^4 lymph/ml in data set [4] (10 mg/l of the preparation) and 3,8 ± 0,4 IU/3·10^4 lymph/ml in data set [4] (100 mg/l of the preparation).
As for “pyridine salt of 5,5'-(p-chlorobenzylidene)bis(2-thiobarbituric) acid [IV]”, the “number of cells in 100 fields” value in data set [2] (10 mg/l) amounted to 10000; in data set [2] (50 mg/l), 2000; in data set [2] (100 mg/l) it was 4000. The “Concentration of INF” value in data set [4] (1 mg/l of the preparation) is 1,3 ± 0,5 IU/3·10^4 lymph/ml; in data set [4] (10 mg/l of the preparation), 3,7 ± 1,0 IU/3·10^4 lymph/ml; in data set [4] (100 mg/l of the preparation), 23,0 ± 1,7 IU/3·10^4 lymph/ml.
